Active and inactive are the calls of the source. No cut-off for these calls is given here.
Key:
[1] = target: Sphingosine 1-phosphate receptor 1 (Homo sapiens, UniProt P21453); test: Agonist activity at S1P1 receptor by Tango assay; format: functional
[2] = target: Sphingosine 1-phosphate receptor 3 (Homo sapiens, UniProt Q99500); test: Agonist activity at human S1P3 receptor assessed as Ca2+ mobilization by GeneBLAzer assay; format: functional
[3] = Oral bioavailability in C57BL/6 mouse blood at 2 mg/kg; format: ADME, organism-based
Mus musculus [4] = test: Immunosuppressive activity in naive B6 mouse assessed as peripheral lymphocytes at 1 mg/kg, po at 24 hrs relative to control; format: functional
[5] = Volume of distribution at steady state in C57BL/6 mouse blood at 1 mg/kg, iv and 2 mg/kg, po; format: ADME, organism-based; conditions: read-out: Vdss
[6] = Cmax in C57BL/6 mouse blood at 1 mg/kg, iv and 2 mg/kg, po; format: ADME, organism-based
[7] = Clearance in C57BL/6 mouse blood at 1 mg/kg, iv and 2 mg/kg, po; format: ADME, organism-based
[8] = Terminal half life in C57BL/6 mouse blood at 1 mg/kg, iv and 2 mg/kg, po; format: ADME, organism-based; conditions: read-out: beta t1/2 (converted)
Mus musculus [9] = test: Immunosuppressive activity in naive B6 mouse assessed as peripheral lymphocytes at 1 mg/kg, po at 4 hrs relative to control; format: functional
[10] = Ratio of drug level in brain to blood in mouse at 2 mg/kg, ip at 2 hrs; format: ADME, organism-based; design: dose 2 mg/kg, route intraperitoneal; conditions: brain and blood
[11] = Ratio of drug level in brain to blood in mouse at 2 mg/kg, ip at 1 hr; format: ADME, organism-based; design: dose 2 mg/kg, route intraperitoneal; conditions: brain and blood
[12] = Ratio of drug level in brain to blood in mouse at 2 mg/kg, ip at 4 hrs; format: ADME, organism-based; design: dose 2 mg/kg, route intraperitoneal; conditions: brain and blood
Mus musculus [13] = organism: Mus musculus; test: Immunosuppressive activity in C57BL/6 mouse autoimmune encephalomyelitis model assessed as efficacy relative to fingolimod; format: functional, organism-based

Chain of Sphingosine 1-phosphate receptor 1 (P21453 whole entry): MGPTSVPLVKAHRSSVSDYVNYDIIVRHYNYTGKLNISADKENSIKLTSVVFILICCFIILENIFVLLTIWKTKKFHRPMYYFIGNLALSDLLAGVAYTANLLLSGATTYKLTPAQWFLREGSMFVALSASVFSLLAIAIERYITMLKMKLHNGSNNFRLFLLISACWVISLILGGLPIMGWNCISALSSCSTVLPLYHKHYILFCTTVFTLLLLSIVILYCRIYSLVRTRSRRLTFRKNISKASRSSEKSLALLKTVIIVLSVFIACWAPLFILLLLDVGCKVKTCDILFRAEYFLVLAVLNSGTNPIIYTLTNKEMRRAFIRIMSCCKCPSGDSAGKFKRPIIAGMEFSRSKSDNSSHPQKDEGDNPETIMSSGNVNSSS
Chain of Sphingosine 1-phosphate receptor 3 (Q99500 whole entry): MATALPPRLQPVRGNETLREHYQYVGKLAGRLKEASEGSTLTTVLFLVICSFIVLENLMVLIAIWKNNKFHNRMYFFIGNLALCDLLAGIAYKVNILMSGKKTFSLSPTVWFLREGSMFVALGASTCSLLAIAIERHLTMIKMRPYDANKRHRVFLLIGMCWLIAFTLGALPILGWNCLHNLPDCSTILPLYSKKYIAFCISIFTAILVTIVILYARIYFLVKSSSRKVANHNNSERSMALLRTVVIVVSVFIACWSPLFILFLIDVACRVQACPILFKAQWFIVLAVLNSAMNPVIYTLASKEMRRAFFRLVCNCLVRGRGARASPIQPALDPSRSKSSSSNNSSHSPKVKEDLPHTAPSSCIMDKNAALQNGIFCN

Compound | EC50 [1] [nM] | EC50 [2] [nM] | other results
CC(C)Oc1ccc(-c2nc(-c3cccc4c(CCC(=O)O)cn(C(C)C)c34)no2)cc1Cl | 20 | > 10000 | 
CC(C)Oc1ncc(-c2nc(-c3cccc4c(CCC(=O)O)c[nH]c34)no2)cc1Cl | 0.398 | > 10000 | 
Cc1cc(-c2nc(-c3cccc4c(CCC(=O)O)c[nH]c34)no2)cnc1OC(C)C | 1.58 | > 10000 | 
COc1ccc(-c2noc(-c3ccc(OC(C)C)c(Cl)c3)n2)c2c1c(CCC(=O)O)cn2C | 6.31 | > 10000 | 
CNC(=O)CCc1c[nH]c2c(-c3noc(-c4ccc(OC(C)C)c(Cl)c4)n3)cccc12 | 0.0398 | > 10000 | 
CC(C)Oc1ccc(-c2nc(-c3cccc4c(CCCC(=O)O)c[nH]c34)no2)cc1Cl | 0.398 | > 10000 | 
O=C(O)CCc1c[nH]c2c(-c3noc(C4CCCCC4)n3)cccc12 | > 10000 | > 10000 | 
O=C(O)CCc1c[nH]c2c(-c3noc(-c4ccc(Cl)cc4)n3)cccc12 | 3160 | > 10000 | 
CCn1cc(CCC(=O)O)c2cccc(-c3noc(-c4ccc(OC(C)C)c(Cl)c4)n3)c21 | 0.316 | > 10000 | 
CC(C)Oc1ccc(-c2nc(-c3c(F)ccc4c(CCC(=O)O)cn(C)c34)no2)cc1Cl | 25.1 | > 10000 | 
CC(C)Oc1ccc(-c2nc(-c3ccc4c(ccn4CCC(=O)O)c3)no2)cc1Cl | 2.51 | > 10000 | 
CC(C)Oc1ccc(-c2nc(-c3cccc4c(CCc5nnn[nH]5)c[nH]c34)no2)cc1Cl | 0.0794 | > 10000 | 
CC(C)Oc1ccc(-c2nc(-c3cccc4c(C(=O)O)c[nH]c34)no2)cc1Cl | 5.01 | > 10000 | 
CC(C)Oc1ccc(-c2nc(-c3cc(F)cc4c(CCC(=O)O)cn(C)c34)no2)cc1Cl | < 0.01 | > 10000 | 
CC(C)Oc1ccc(-c2nc(-c3ccc4ccn(CCC(=O)O)c4c3)no2)cc1Cl | 398 | > 10000 | 
O=C(O)CCc1c[nH]c2c(-c3noc(-c4ccc5c(c4)OCCO5)n3)cccc12 | > 3160 | > 10000 | 

Compound | EC50 [1] [nM] | EC50 [2] [nM] | other results
CC(C)Oc1ccc(-c2nc(-c3ccc4[nH]c(CCC(=O)O)cc4c3)no2)cc1Cl | 0.2 | > 10000 | 
CC(C)Oc1ccc(-c2nc(-c3cccc4c(CC(=O)O)c[nH]c34)no2)cc1Cl | 39.8 | > 10000 | 
COc1ccc(-c2nc(-c3cccc4c(CCC(=O)O)c[nH]c34)no2)cc1OC | 1260 | > 10000 | 
O=C(O)CCc1c[nH]c2c(-c3noc(C4CCOCC4)n3)cccc12 | > 10000 | > 10000 | 
CC(C)Oc1ccc(-c2nc(-c3cccc4c(CCC(N)=O)c[nH]c34)no2)cc1Cl | 0.0316 | > 10000 | 
CC(C)Oc1ccc(-c2nc(-c3cccc4c(CCC(=O)O)cn(C)c34)no2)cc1Cl | 0.00631 | > 10000 | 
CC1(C)Oc2ccc(-c3nc(-c4cccc5c(CCC(=O)O)c[nH]c45)no3)cc2O1 | 398 | > 10000 | 
CC(C)Oc1ncc(-c2nc(-c3cccc4c(CCC(=O)O)c[nH]c34)no2)cc1C(F)(F)F | 0.251 | > 10000 | 
CCOc1ccc(-c2nc(-c3cccc4c(CCC(=O)O)c[nH]c34)no2)cc1OCC | 3.16 | > 10000 | 
CCCn1cc(CCC(=O)O)c2cccc(-c3noc(-c4ccc(OC(C)C)c(Cl)c4)n3)c21 | 200 | > 10000 | 
CC(C)Oc1ccc(-c2nc(-c3ccc(F)c4c(CCC(=O)O)cn(C)c34)no2)cc1Cl | < 0.01 | > 10000 | bioavailability [3]: 100%; Activity (Mus musculus [4]): 114%; Vd [5]: 0.84 L/kg; Cmax [6]: 1700 ng/mL; clearance [7]: 3.22 mL/min/kg; half-life [8]: 3.83 h; Activity (Mus musculus [9]): 21%; Kp at 2 h [10]: 0.48; Kp at 1 h [11]: 0.35; Kp at 4 h [12]: 0.48; Efficacy (Mus musculus [13]): Active
COc1cc(-c2nc(-c3cccc4c(CCC(=O)O)c[nH]c34)no2)cnc1OC(C)C | 100 | > 10000 | 
CC(C)Oc1ccc(-c2nc(-c3cccc4c(CCCCC(=O)O)c[nH]c34)no2)cc1Cl | 0.0501 | > 10000 | 
CC(C)Oc1ccc(-c2nc(-c3ccc4c(CCC(=O)O)c[nH]c4c3)no2)cc1Cl | 0.251 | > 10000 | 
CC(C)Oc1ccc(-c2nc(-c3cccc4c(CCC(=O)O)c[nH]c34)no2)cc1Cl | 0.0126 | > 10000 | 

Reference: ChEMBL document CHEMBL2016540, “Indole-propionic acid derivatives as potent, S1P3-sparing and EAE efficacious sphingosine-1-phosphate 1 (S1P1) receptor agonists” (Bioorg Med Chem Lett, 2012)
